Earlier results as cited in US20150246061A1, “VITAMIN D ANALOGUES FOR THE TREATMENT OF A NEUROLOGICAL DISORDER” (CELUS PHARMACEUTICALS, INC., priority 2012, published 2015).

Conditions: adult humans, longer treatment periods

daily dose up to which elocalcitol has been shown to be safe: ≤ 150 µg
Structure (SMILES): C=C1/C(=C\C=C2/CCC[C@]3(C)C([C@@H](C)C/C=C/C(O)(CC)CC)=CC[C@@H]23)C[C@@H](O)C[C@@H]1F [Elocalcitol, elocalcitol]
